From US8778303B2, “99mTc-labeled 19 amino acid containing peptide for use as phosphatidylethanolamine binding molecular probe and radiopharmaceutical” (The Medical College of Wisconsin, Inc., priority 2008, dated 2014)
Where no end group is shown, it is not given here.

Legend:
[1] = Cysteine challenge stability test; type: physicochemical; conditions: cysteine-to-Duramycin ratio of 100:1
Procedure: HPLC method 2. Jupiter C18 column (90 Å pore size, 250×4.6 mm) was used with a buffered mobile phase system consisting of phosphate buffer (10 mM sodium phosphate, pH 6.7) and acetonitrile at a flow rate of 1.0 ml/min at room temperature. A baseline of 5 min at 90% buffer A (phosphate buffer, pH6.7) and 10% buffer B (acetonitrile) was followed by a linear gradient to 10% buffer A and 90% buffer B in 30 min. The level of radioactivity in the HPLC elute was monitored by gamma counting at an energy window of 140±15 keV.
HYNIC-Duramycin was labeled with ^99mTc using the tricine-phosphine co-ligand system. Specifically, 15 μg of HYNIC-Duramycin was mixed with 40 mg of tricine, 1 mg of TPPTS and 20 μg SnCl2 in 0.8 ml at pH 5.3. The labeling was initiated with the addition of about 1 mCi of ^99mTc. The incubation was allowed to proceed for 40 min at room temperature. The final radiopharmaceutical, ^99mTc-HYNIC-Duramycin, was analyzed and purified using HPLC method 2. After purification, acetonitrile was removed by evaporation under nitrogen, and ^99mTc-HYNIC-Duramycin was reconstituted in saline for usage. ^99mTc-HYNIC-Duramycin^1 was synthesized in the same fashion. For stability tests, cysteine challenge was carried out at a cysteine-to-^99mTc-Duramycin ratio of 100 to 1, in 0.01 mM phosphate buffer (pH 6.8) for 2 hr at room temperature. The sample was analyzed with radioHPLC (method 2).

[2] = liposomes; bind PtdE at equal-molar ratio; cited from earlier work
[3] = literature (McNulty 2003); cited from earlier work
[4] = humans, including patients with Cystic Fibrosis; cited from earlier work
rat serum albumin = rat serum albumin (rat, UniProt P02770 25-608); assay: radioHPLC analysis of the tracer in the presence of rat serum albumin
Chain of rat serum albumin (P02770 25-608 limits assumed): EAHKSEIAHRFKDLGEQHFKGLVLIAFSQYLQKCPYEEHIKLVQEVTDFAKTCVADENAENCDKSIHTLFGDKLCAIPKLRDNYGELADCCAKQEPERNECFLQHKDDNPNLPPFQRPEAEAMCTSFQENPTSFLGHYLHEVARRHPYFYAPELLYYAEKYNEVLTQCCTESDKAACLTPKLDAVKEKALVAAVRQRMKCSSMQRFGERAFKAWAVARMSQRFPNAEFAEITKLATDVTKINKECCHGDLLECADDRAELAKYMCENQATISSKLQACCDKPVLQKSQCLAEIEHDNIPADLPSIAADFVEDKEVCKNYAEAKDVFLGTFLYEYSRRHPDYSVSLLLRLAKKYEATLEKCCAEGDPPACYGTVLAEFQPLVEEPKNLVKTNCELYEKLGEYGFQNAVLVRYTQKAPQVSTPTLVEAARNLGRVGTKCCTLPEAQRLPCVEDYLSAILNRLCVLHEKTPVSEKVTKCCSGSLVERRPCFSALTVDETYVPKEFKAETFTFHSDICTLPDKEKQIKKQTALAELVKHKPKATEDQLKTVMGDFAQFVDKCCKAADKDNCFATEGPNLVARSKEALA

Question: Which results are given for “19-amino acid peptide produced by Streptoverticillium cinnamoneus, CKQSCSFGPFTFVCDGNTK (SEQ ID NO 1), binds PtdE [Duramycin]”?
Answer: radioactivity associated with the peptide diminished/reduced in cysteine challenge [1]: 90%; dissociation constant [2]: nanomolar range; hepatic retention [3]: retained for an extended duration (e.g., many days) in the liver without complete washout; toxicity and immunogenicity in clinical testing [4]: lack of significant toxicity and immunogenicity

Question: For “homolog of Duramycin with Arg replacing Lys at position two, CRQSCSFGPFTFVCDGNTK (SEQ ID NO 2) (not fully specified (bridges); ends and bridges not checked; also: lanthionine bridges, places not given here; listed as Streptoverticillium cinnamoneus) [Cinnamycin]”, which dissociation constant [2] is on record?
Answer: Its dissociation constant is “nanomolar range”.

B1: ^99mTc-HYNIC-Duramycin (peptide)
peptide: CKQSCSFGPFTFVCDGNTK
modifications: thioether bonds between positions 1-18, 4-14 and 5-11; amide bond between positions 6 and 19; one HYNIC (6-hydrazinopyridine-3-carboxylic acid) moiety on either Cys-1 or Lys-2, chelating 99mTc with tricine and TPPTS co-ligands
notes: Lantibiotic peptide, cross-linked; also called 99mTc-Duramycin; radiolabeled Duramycin
Question: Does B1 bind (rat serum albumin)?
Answer: Result: no binding
